Patent US20250388565A1, “ESTROGEN RECEPTOR ALPHA DEGRADERS AND METHODS OF USE THEREOF” (Relay Therapeutics, Inc., priority 2022, published 2025)

Biological target: T1, ERα protein (HiBiT-tagged) in ESR1_HiBiT KI MCF7 cells (Homo sapiens, UniProt P03372)
T1 sequence (P03372 1-595): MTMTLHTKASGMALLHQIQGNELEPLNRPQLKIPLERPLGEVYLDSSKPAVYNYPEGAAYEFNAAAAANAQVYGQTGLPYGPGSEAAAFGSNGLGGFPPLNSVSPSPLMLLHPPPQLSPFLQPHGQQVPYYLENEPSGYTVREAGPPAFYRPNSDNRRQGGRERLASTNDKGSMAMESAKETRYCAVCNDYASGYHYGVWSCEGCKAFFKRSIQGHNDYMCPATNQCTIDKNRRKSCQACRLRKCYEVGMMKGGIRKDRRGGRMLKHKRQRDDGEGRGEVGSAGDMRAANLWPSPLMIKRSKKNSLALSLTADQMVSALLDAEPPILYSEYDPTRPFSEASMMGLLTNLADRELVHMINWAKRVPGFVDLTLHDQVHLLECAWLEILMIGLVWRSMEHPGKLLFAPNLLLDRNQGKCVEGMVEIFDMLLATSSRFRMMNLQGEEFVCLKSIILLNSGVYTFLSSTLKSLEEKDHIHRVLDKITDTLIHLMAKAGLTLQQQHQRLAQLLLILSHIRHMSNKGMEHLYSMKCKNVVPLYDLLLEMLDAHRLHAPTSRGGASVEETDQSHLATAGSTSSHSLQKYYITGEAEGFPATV
Assay: Nano Glo HiBiT Lytic Degradation Assay
Assay type: cell-based
Settings: 6 hours with compound, 14-point dose response 1:3, bell-shape curve fit, half-maximal effect of first Hill model, read-out: MCF7 ESR1 HiBiT - (DC50)
Method: Selected compounds of the present disclosure were tested in a Nano Glo HiBiT Lytic Degradation Assay to measure the level of ERα protein degradation in MCF7 cells.
Cell culture: ESR1_HiBiT KI MCF7 cells were maintained in growth media without antibiotics. Cells were maintained in exponential growth phase, between 40% and 90% confluency.
Cell seeding: Cells were counted using a Vi-Cell and seeded in a 384-well flat-bottom microplate (cell culture-treated) at 4000 cells/well in 25 μL of growth medium using a BioTek MultiFlo Multimode Dispenser. Plates were incubated for 24 h at 37° C., 5% CO2, >95% relative humidity.
Compound preparation: Compounds were screened as 14-point dose response curves 1:3 dilutions. DMSO is used as the vehicle control and all wells were normalized to the same final DMSO concentration (0.1% v/v). Compounds were dosed using an Echo Acoustic Liquid Handler, 25 nL of 1000× (10 mM top concentration) DMSO stock/well. Cells were incubated with compounds for 6 hours at 37° C., 5% CO2, >95% relative humidity. Each compound was run in duplicate.
Nano Glo HiBiT Lytic Degradation Assay: HiBiT-tagged ERα protein levels were quantified using a Nano Glo HiBiT Lytic Degradation Assay following the manufacturer's protocol. Briefly, the Nano-Glo® HiBiT Lytic Reagent was prepared by diluting the LgBiT Protein reagent (1:100) and the Nano-Glo® HiBiT Lytic Substrate (1:50) into Nano-Glo® HiBiT Lytic Buffer at room temperature. The 384-well microplate were equilibrated to room temperature and 25 μL of Nano-Glo® HiBiT Lytic Reagent was added to each well. Samples were mixed by placing the 384-well microplate on an orbital shaker for 10 minutes. Luminescence was measured using an EnVision 2105 Multimode Plate Reader.
Data processing and analysis: Background signal (wells containing growth medium without cells) was subtracted from individual relative light units (RLU) values and the resulting values were normalized to the DMSO control well values. Dose responses were analyzed with Genedata Screener® using a bell-shape curve fit and the concentrations corresponding to the half-maximal effect of the first Hill model were used as DC50 values.

SMILES | DC50
O=C1CC[C@H](N2Cc3cc(N4CCN(CC5CCN(c6ccc([C@H]7c8ccc(O)cc8CC[C@@]78CCc7ccccc78)cc6)CC5)CC4)ccc3C2=O)C(=O)N1 (relative stereo) [Compound I-261, (S)-3-(5-(4-((1-(4-((1S*,1′R*)-6′-hydroxy-2,3,3′,4′-tetrahydro-1′H-spirofindene-1,2′-naphthalen]-1′-yl)phenyl)piperidin-4-yl)methyl)piperazin-1-yl)-1-oxoisoindolin-2-yl)piperidine-2,6-dione] | 19 nM
O=C1CC[C@H](N2Cc3cc(N4CCN(CC5CCN(c6ccc([C@@H]7c8ccc(C(=O)O)cc8CC[C@@H]7c7ccccc7)cc6)CC5)CC4)ccc3C2=O)C(=O)N1 (single isomer, unassigned) [Compound I-2] | ≥ 10000 nM
O=C1CCC(c2ccc(N3CCN(CCC4CCN(c5ccc([C@@H]6c7ccc(O)cc7CC[C@@H]6c6ccccc6)cc5)CC4)CC3)cc2)C(=O)N1 (single isomer, unassigned) [Compound I-8] | ≥ 10000 nM
Cn1nccc1[C@H]1CCc2cc(O)ccc2[C@H]1c1ccc(N2CCC(CN3CCN(c4ccc5c(c4)CN([C@H]4CCC(=O)NC4=O)C5=O)CC3)CC2)cc1 (single isomer, unassigned) [Compound I-24] | ≥ 10000 nM
Cn1ccc([C@H]2CCc3cc(O)ccc3[C@H]2c2ccc(N3CCC(CN4CCN(c5ccc6c(c5)CN([C@H]5CCC(=O)NC5=O)C6=O)CC4)CC3)cc2)n1 (single isomer, unassigned) [Compound I-28] | ≥ 10000 nM
O=C1CC[C@H](N2Cc3cc(N4CCN(CC5CCN(c6ccc([C@@H]7c8ccc(O)cc8CO[C@@H]7c7ccc(C(F)(F)F)cc7)cc6)CC5)CC4)ccc3C2=O)C(=O)N1 (single isomer, unassigned) [Compound I-36] | 80 nM
O=C1CCC(c2ccc(N3CCN(C4CCN(c5ccc([C@@H]6c7ccc(O)cc7CC[C@@H]6c6ccccc6)cc5)CC4)CC3)cc2)C(=O)N1 (single isomer, unassigned) [Compound I-40] | 370 nM
O=C1CCC(c2ccc(N3CCN(C4CCN(c5ccc([C@H]6c7ccc(O)cc7CC[C@H]6c6ccccc6)cc5)CC4)CC3)cc2)C(=O)N1 (single isomer, unassigned) [Compound I-41] | 370 nM
O=C1CCC(c2ccc(N3CCN(CCC4CCN(c5ccc([C@H]6c7ccc(O)cc7CC[C@H]6c6ccccc6)cc5)CC4)CC3)cc2)C(=O)N1 (single isomer, unassigned) [Compound I-42] | ≥ 10000 nM
O=C1CC[C@@H](N2Cc3cc(N4CCC(CN5CCC(n6cc([C@@H]7c8ccc(O)cc8CC[C@@H]7c7ccccc7)cn6)CC5)CC4)ccc3C2=O)C(=O)N1 (single isomer, unassigned) [Compound I-48] | ≥ 10000 nM
O=C1CCC(N2Cc3cc(N4CCN(CC5CCN(c6ccc([C@@H]7c8ccc(O)cc8CC[C@@H]7C7CCCC7)cc6)CC5)CC4)ccc3C2=O)C(=O)N1 (single isomer, unassigned) [Compound I-52] | 9 nM
O=C1CCC(N2Cc3cc(N4CCN(CC5CCN(c6ccc([C@@H]7c8ccc(O)cc8CC[C@@H]7C7CCC(F)(F)CC7)cc6)CC5)CC4)ccc3C2=O)C(=O)N1 (single isomer, unassigned) [Compound I-54] | 742 nM
O=C1CC[C@H](N2Cc3cc(N4CCN(CC5CCN(c6ccc([C@H]7c8ccc(O)cc8CO[C@H]7c7ccc(C(F)(F)F)cc7)cc6)CC5)CC4)ccc3C2=O)C(=O)N1 (single isomer, unassigned) [Compound I-56] | 7.75 nM
O=C1CC[C@H](N2Cc3cc(N4CCN(CC5CCN(c6ccc([C@@H]7c8ccc(O)cc8CC[C@@H]7c7ccc8c(c7)CC8)cc6)CC5)CC4)ccc3C2=O)C(=O)N1 (single isomer, unassigned) [Compound I-57] | 7 nM
O=C1CC[C@H](N2Cc3cc(N4CCN(CC5CCN(c6ccc([C@@H]7c8ccc(O)cc8CC[C@@H]7c7ccc8c(c7)CCCC8)cc6)CC5)CC4)ccc3C2=O)C(=O)N1 (single isomer, unassigned) [Compound I-59] | 906 nM
O=C1CC[C@H](N2Cc3cc(N4CCN(CC5CCN(c6ccc([C@H]7c8ccc(O)cc8CC[C@H]7c7cccc8c7CCCC8)cc6)CC5)CC4)ccc3C2=O)C(=O)N1 (single isomer, unassigned) [Compound I-61] | ≥ 10000 nM
O=C1CCC(N2Cc3cc(N4CCN(CC5CCN(c6ccc([C@H]7c8ccc(O)cc8CC[C@H]7c7cccc8c7CC8)cc6)CC5)CC4)ccc3C2=O)C(=O)N1 (single isomer, unassigned) [Compound I-101] | 8 nM
O=C1CC[C@H](N2Cc3cc(N4CCN(CC5CCN(c6ccc([C@H]7CCCc8cc(O)ccc87)cc6)CC5)CC4)ccc3C2=O)C(=O)N1 (single isomer, unassigned) [Compound I-102] | ≥ 10000 nM
O=C1CC[C@H](N2Cc3cc(N4CCN(CC5CCN(c6ccc([C@@H]7CCCc8cc(O)ccc87)cc6)CC5)CC4)ccc3C2=O)C(=O)N1 (single isomer, unassigned) [Compound I-103] | ≥ 10000 nM

The remaining lines, values ahead:

DC50 | SMILES
3 nM | O=C1CC[C@H](N2Cc3cc(N4CCN(CC5CCN(c6ccc([C@H]7c8ccc(C(=O)O)cc8CC[C@H]7c7ccccc7)cc6)CC5)CC4)ccc3C2=O)C(=O)N1 (single isomer, unassigned) [Compound I-1]
0.02 nM | Cn1nccc1[C@@H]1CCc2cc(O)ccc2[C@@H]1c1ccc(N2CCC(CN3CCN(c4ccc5c(c4)CN([C@H]4CCC(=O)NC4=O)C5=O)CC3)CC2)cc1 (single isomer, unassigned) [Compound I-25]
0.14 nM | Cn1ccc([C@@H]2CCc3cc(O)ccc3[C@@H]2c2ccc(N3CCC(CN4CCN(c5ccc6c(c5)CN([C@H]5CCC(=O)NC5=O)C6=O)CC4)CC3)cc2)n1 (single isomer, unassigned) [Compound I-29]
7 nM | O=C1CC[C@H](N2Cc3cc(N4CCN(CC5CCN(c6ccc([C@H]7c8ccc9[nH]ncc9c8CC[C@H]7c7ccccc7)cc6)CC5)CC4)ccc3C2=O)C(=O)N1 (single isomer, unassigned) [Compound I-44]
0.92 nM | O=C1CCC(N2Cc3cc(N4CCN(CC5CCN(c6ccc([C@H]7c8ccc(O)cc8CC[C@H]7C7CCCC7)cc6)CC5)CC4)ccc3C2=O)C(=O)N1 (single isomer, unassigned) [Compound I-53]
0.41 nM | O=C1CC[C@H](N2Cc3cc(N4CCN(CC5CCN(c6ccc([C@H]7c8ccc(O)cc8CC[C@H]7C7CCC(F)(F)CC7)cc6)CC5)CC4)ccc3C2=O)C(=O)N1 (single isomer, unassigned) [Compound I-55]
0.048 nM | O=C1CC[C@H](N2Cc3cc(N4CCN(CC5CCN(c6ccc([C@H]7c8ccc(O)cc8CC[C@H]7c7ccc8c(c7)CC8)cc6)CC5)CC4)ccc3C2=O)C(=O)N1 (single isomer, unassigned) [Compound I-58]
1 nM | O=C1CC[C@H](N2Cc3cc(N4CCN(CC5CCN(c6ccc([C@H]7c8ccc(O)cc8CC[C@H]7c7ccc8c(c7)CCCC8)cc6)CC5)CC4)ccc3C2=O)C(=O)N1 (single isomer, unassigned) [Compound I-60]
2 nM | O=C1CC[C@H](N2Cc3cc(N4CCN(CC5CCN(c6ccc([C@@H]7c8ccc(O)cc8CC[C@@H]7c7cccc8c7CCCC8)cc6)CC5)CC4)ccc3C2=O)C(=O)N1 (single isomer, unassigned) [Compound I-62]
0.33 nM | O=C1CCC(N2Cc3cc(N4CCN(CC5CCN(c6ccc([C@@H]7c8ccc(O)cc8CC[C@@H]7c7cccc8c7CC8)cc6)CC5)CC4)ccc3C2=O)C(=O)N1 (single isomer, unassigned) [Compound I-100]
